Source: paper PMC9785280, “Synthesis, Antiproliferative Evaluation and QSAR Analysis of Novel Halogen- and Amidino-Substituted Benzothiazoles and Benzimidazoles” (International Journal of Molecular Sciences, 2022)

Key:
[1] = system: MDCK1 (Madin–Darby canine kidney) cells; assay: MTT antiproliferative assay, non-tumor MDCK1 cells; assay type: cell-based; conditions: Canis lupus familiaris, MDCK1, 72 h, mean ± SD of three independent experiments, normal cells
Protocol: (§1) The growth inhibition activity was assessed according to the slightly modified procedure performed at the National Cancer Institute, Developmental Therapeutics Program.
(§2) Examined compounds were dissolved in DMSO (1 × 10^−2 M). The experiments were carried out on seven human tumor cell lines and two normal cell lines. The following cell lines were used: HeLa (human cervical adenocarcinoma; purchased from ATCC), CaCo-2 (human colorectal adenocarcinoma), HuT78 (T-cell lymphoma), THP-1 (acute monocytic leukemia), SW620 (colorectal adenocarcinoma, metastatic), MDA-MB-231 (human breast adenocarcinoma), HL60 (promyelocytic leukemia cell line), foreskin fibroblast cells (BJ) and MDCK1 (Madine–Darby canine kidney fibroblast like cells). MDCK1 cells were used between 24 and 26 passages.
(§3) Adherent cells were cultured in the Dulbecco’s modified Eagle medium—DMEM (Gibco, EU) supplemented with 10 % heat-inactivated fetal bovine serum (FBS, Gibco, EU), 2 mM glutamine, and 100 U/0.1 mg penicillin/streptomycin. Cells on suspension were cultured in RPMI 1640 (Gibco, EU) medium supplemented with 10 % FBS (Gibco, EU), 2 mM glutamine, 1 mM sodium pyruvate, 10 mM HEPES. Cells were grown in humidified atmosphere under the conditions of 37 °C/5% of CO2 gas in the CO2 incubator (IGO 150 CELLlife^TM, JOUAN, Thermo Fisher Scientific, Waltham, MA, USA). A erythrosin B (Sigma-Aldrich, St. Louis, MO, USA) dye exclusion method was used to assess cell viability before plating.
(§4) Adherent cells (HeLa, CaCo-2, MCF-7 and MDCK-1) were plated in 96-well flat bottom plates (Greiner, Frickenhausen, Austria) at a concentration of 2 × 10^4 cells/mL. Suspension cells (THP-1 and HuT78) were plated in 96-well microtiter plates (Sarstead, Newton, USA) at a concentration of 1 × 10^5 cells/mL. Twenty-four hours later, cells were treated with test agents in […] 10-fold dilutions ([…] to 10^−4 M) and incubated for further 72 h. Working dilutions were freshly prepared on the day of testing. The solvent was also tested for eventual inhibitory activity by adjusting its concentration to be the same as in working concentrations. After 72 h of incubation, the cell growth rate was evaluated by performing the MTT assay, which detects dehydrogenase activity in viable cells. For this purpose, upon completion of the incubation period, growth medium was discarded and 50 μL of MTT was added to each well at a concentration of 5 mg/mL. After four hours of incubation at 37 °C, water insoluble MTT-formazan crystals were dissolved in 150 μL of dimethyl-sulfoxide (DMSO) for adherent cells, and in 10 % SDS with 0.01 M/L HCl for cells grown in suspension. The absorbance (OD, optical density) was measured on a microplate reader (iMark, BIO RAD, Hercules, CA, USA) at 595 nm.
(§5) Percent of life cells was calculated as follows: % = OD (sample)–OD (background)/OD (control)–OD (background) × 100.
(§6) Optical density (OD) of background for adherent cells is the OD of MTT solution and DMSO; OD (background) for suspension cells is OD of the culture medium with MTT and 10% SDS with 0.01 M/L HCl; OD (control) is the OD of the cells growth without tested compounds.
(§7) Calculation of GI50 value curves and QC analysis is performed by using the Excel tools and GraphPadPrism software (La Jolla, CA), v. 5.03. Briefly, individual concentration effect curves are generated by plotting the logarithm of the concentration of tested compounds(X) vs. corresponding percent inhibition values (Y) using least squares fit. The best fit GI50 values are calculated using Log (inhibitor) versus normalized response—Variable slope equation, where Y Ľ 100/(1 ţ 10 ((LogIC50 _ X) * HillSlope)). QC criteria parameters (Z0, S:B, R2, HillSlope) were checked for every GI50 curve.

[2] = system: human fibroblasts (BJ); assay: MTT antiproliferative assay, normal BJ fibroblasts; assay type: cell-based; conditions: Homo sapiens, Fibroblast, 72 h, MTT, mean ± SD of three independent experiments; normal cells
Protocol: as §1, §2, §3, §4, §5, §6, §7

[3] = system: HeLa (cervical adenocarcinoma) cells; assay: MTT antiproliferative assay, HeLa; assay type: cell-based; conditions: Homo sapiens, 72 h, mean ± SD of three independent experiments
Protocol: as §1, §2, §3, §4, §5, §6, §7

[4] = system: CaCo-2 (colon adenocarcinoma) cells; assay: MTT antiproliferative assay, CaCo-2; assay type: cell-based, human; conditions: for IC50: Homo sapiens, Caco-2, 72 h, MTT, mean ± SD of three independent experiments
Protocol: as §1, §2, §3, §4, §5, §6
Calculation of GI50 value curves and QC analysis is performed by using the Excel tools and GraphPadPrism software (La Jolla, CA), v. 5.03. Briefly, individual concentration effect curves are generated by plotting the logarithm of the concentration of tested compounds(X) vs. corresponding percent inhibition values (Y) using least squares fit. […] QC criteria parameters (Z0, S:B, R2, HillSlope) were checked for every GI50 curve.

[5] = system: HuT78 (T-cell lymphoma) cells; assay: MTT antiproliferative assay, HuT78; assay type: cell-based, human; conditions: for IC50: Homo sapiens, HuT78, 72 h, 72 h, MTT, mean ± SD of three independent experiments
Protocol: as §1, §2, §3, §4, §5, §6, §7

| Structure (SMILES) | IC50 [1] | IC50 [2] | IC50 [3] | IC50 [4] | IC50 [5] | melting point | SI (BJ) HuT78 ([5]; SI = IC50 BJ / IC50 HuT78) | SI (BJ) CaCo-2 ([4]; SI = IC50 BJ / IC50 CaCo-2) | SI (MDCK) CaCo-2 ([4]; SI = IC50 MDCK1 / IC50 CaCo-2) |
| --- | --- | --- | --- | --- | --- | --- | --- | --- | --- |
| O=C(COc1ccc(-c2nc3ccc(Cl)cc3s2)cc1)c1ccccc1 [15a, 6-Chloro-2-(4-(2-oxo-2-phenylethoxy)phenyl)benzothiazole] | > 100 µM | > 100 µM | > 100 µM | > 100 µM | > 100 µM | 192 to 195 °C | – | – | – |
| O=C(COc1ccc(-c2nc3ccc(Cl)cc3s2)cc1F)c1ccccc1 [15b, 6-Chloro-2-(3-fluoro-4-(2-oxo-2-phenylethoxy)phenyl)benzothiazole] | > 100 µM | > 100 µM | > 100 µM | > 100 µM | > 100 µM | 192 to 195 °C | – | – | – |
| COc1cc(-c2nc3ccc(Cl)cc3s2)ccc1OCC(=O)c1ccccc1 [15c, 6-Chloro-2-(3-methoxy-4-(2-oxo-2-phenylethoxy)phenyl)benzothiazole] | 79.3 ± 14.4 µM | > 100 µM | > 100 µM | > 100 µM | > 100 µM | 163 to 166 °C | – | – | – |
| O=C(COc1ccc(-c2nc3ccc(F)cc3s2)cc1)c1ccccc1 [16a, 6-Fluoro-2-(4-(2-oxo-2-phenylethoxy)phenyl)benzothiazole] | 87.3 ± 6.9 µM | > 100 µM | > 100 µM | > 100 µM | > 100 µM | 164 to 167 °C | – | – | – |
| O=C(COc1ccc(-c2nc3ccc(F)cc3s2)cc1F)c1ccccc1 [16b, 6-Fluoro-2-(3-fluoro-4-(2-oxo-2-phenylethoxy)phenyl)benzothiazole] | 25.8 ± 9.4 µM | > 100 µM | > 100 µM | 89.3 ± 15.8 µM | 69.8 ± 15.5 µM | 148 to 152 °C | 1.43 | – | – |
| COc1cc(-c2nc3ccc(F)cc3s2)ccc1OCC(=O)c1ccccc1 [16c, 6-Fluoro-2-(3-methoxy-4-(2-oxo-2-phenylethoxy)phenyl)benzothiazole] | 6.8 ± 6.2 µM | > 100 µM | > 100 µM | > 100 µM | > 100 µM | 178 to 181 °C | – | – | – |
| O=C(COc1ccc(-c2nc3ccccc3s2)cc1)c1ccccc1 [17a, 2-(4-(2-Oxo-2-phenylethoxy)phenyl)benzothiazole] | > 100 µM | > 100 µM | > 100 µM | > 100 µM | > 100 µM | 150 to 155 °C | – | – | – |
| O=C(COc1ccc(-c2nc3ccccc3s2)cc1F)c1ccccc1 [17b, 2-(3-Fluoro-4-(2-oxo-2-phenylethoxy)phenyl)benzothiazole] | > 100 µM | > 100 µM | > 100 µM | > 100 µM | > 100 µM | 174 to 177 °C | – | – | – |
| COc1cc(-c2nc3ccccc3s2)ccc1OCC(=O)c1ccccc1 [17c, 2-(3-Methoxy-4-(2-oxo-2-phenylethoxy)phenyl)benzothiazole] | 78 ± 27.8 µM | > 100 µM | > 100 µM | > 100 µM | > 100 µM | 184 to 186 °C | – | – | – |
| Fc1cc(-c2nc3ccc(Cl)cc3s2)ccc1OCc1ccccn1 [18b] | 29.8 ± 17.7 µM | > 100 µM | > 100 µM | > 100 µM | > 100 µM | 211 to 215 °C | – | – | – |
| COc1cc(-c2nc3ccc(Cl)cc3s2)ccc1OCc1ccccn1 [18c] | 41.4 ± 8.1 µM | > 100 µM | 67.3 ± 7.8 µM | > 100 µM | 55.6 ± 34.6 µM | 173 to 176 °C | – | – | – |
| Fc1ccc2nc(-c3ccc(OCc4ccccn4)cc3)sc2c1 [19a] | 1.1 ± 0.2 µM | > 100 µM | > 100 µM | > 100 µM | > 100 µM | 165 to 170 °C | – | – | – |
| Fc1ccc2nc(-c3ccc(OCc4ccccn4)c(F)c3)sc2c1 [19b] | 16.3 ± 11.5 µM | > 100 µM | > 100 µM | > 100 µM | > 100 µM | 190 to 195 °C | – | – | – |
| COc1cc(-c2nc3ccc(F)cc3s2)ccc1OCc1ccccn1 [19c] | 1.1 ± 0.2 µM | > 100 µM | > 100 µM | > 100 µM | > 100 µM | 152 to 156 °C | – | – | – |
| c1ccc(COc2ccc(-c3nc4ccccc4s3)cc2)nc1 [20a, 2-(4-(Pyridin-2-ylmethoxy)phenyl)benzothiazole] | 65.7 ± 11.8 µM | > 100 µM | > 100 µM | > 100 µM | > 100 µM | 132 to 136 °C | – | – | – |
| Fc1cc(-c2nc3ccccc3s2)ccc1OCc1ccccn1 [20b] | 94.2 ± 18.4 µM | > 100 µM | > 100 µM | 28.7 ± 16.7 µM | > 100 µM | 136 to 142 °C | – | 3.48 | 3.28 |
| CCN(CC)CCOc1ccc(-c2nc3ccc(C4=NCCN4)cc3[nH]2)cc1OC [49c] | > 100 µM | > 100 µM | > 100 µM | > 100 µM | > 100 µM | – | – | – | – |
